# Results: patent publication US6451336B2, “Method for increasing brown fat, comprising administering conjugated linoleic acid as active ingredient” (Rinoru Oil Mills Co., Ltd., priority 1999, dated 2002)
# Experiments:
# [1] = Feeding of 1.0% CLA diet to rats for four weeks: growth and weight of organs; type: in vivo, Sprague-Dawley male rats; details: 1.0% CLA in diet, 4 weeks
# From the text: (§1) Sprague-Dawley male rats of four weeks of age were pre-bred, and then divided into two groups (each group consisting of 8 rats), a 1.0% linoleic acid group (a control group) and a 1.0% CLA group. The experimental diet shown in Table 1 and water were then freely fed to these two groups of rats. […] Four weeks after the initiation of feeding, the 8 rats constituting each group were sacrificed, and the organs were taken out.
# [2] = test system: carnitine palmitoyltransferase (CPT); assay: Carnitine palmitoyltransferase (CPT) activity in brown adipose tissues of rats fed CLA; type: in vivo, Sprague-Dawley male rats; details: 1.0% CLA in diet, 4 weeks
# From the text: as §1
# Further, the activity of carnitine palmitoyltransferase (CPT) as a rate-determining enzyme in β-oxidation of fatty acids was measured in brown adipose tissues.
substance,measurement,setting,value
conjugated linoleic acid [CLA],"Food intake, in words, compared with 1.0% linoleic acid control group",[1],without affecting
same,"Weight gain, in words, compared with 1.0% linoleic acid control group",[1],without affecting
same,"Weight of adipose tissues around the kidney (white adipose tissues), in words, compared with control group",[1],significantly decreased
same,"Weight of brown adipose tissues in the back, in words, compared with control group",[1],significantly increased
same,Weight of organs: Brain,[1],0.38 g/100 g body weight
same,Weight of organs: Brown adipose tissue,[1],0.21 g/100 g body weight
same,Weight of organs: Epididymal adipose tissue,[1],1.17 g/100 g body weight
same,Weight of organs: Heart,[1],0.36 g/100 g body weight
same,Weight of organs: Kidney,[1],0.78 g/100 g body weight
same,Weight of organs: Liver,[1],4.40 g/100 g body weight
same,Weight of organs: Lung,[1],0.40 g/100 g body weight
same,Weight of organs: Spleen,[1],0.22 g/100 g body weight
same,"Weight of tissues of liver, kidney, heart, lungs, spleen and brain, in words, compared with control group",[1],no difference
same,Food intake,[1]; free feeding,21.0 g/day
same,Weight gain,[1]; free feeding,227 g/4 weeks
same,Weight of organs: Peri-renal adipose tissue,[1]; white adipose tissue,1.16 g/100 g body weight
same,"Activity of carnitine palmitoyltransferase (CPT) in brown adipose tissues, in words, compared with control group",[2],higher
